The record followed here is patent publication US20260097111A1, “ETHER LIPIDS FOR HYPERACTIVATION OF MAMMALIAN DENDRITIC CELLS” (priority 2022, published 2026).

The test system of one experiment is human moDCs. Briefly: In vitro transwell migration assay towards CCL19. It is filed as cell-based. As to conditions: donor HD87, 10 ng/mL CCL19; FIG. 34A. The procedure: In Vitro Transwell Migration Assay. To test the capacity of human dendritic cells to migrate, an in vitro migration assay was set up. After differentiation into moDC using GM-CSF and IL-4, cells were plated on 10 cm petri dishes at 4×10^6 cells/plate in R10++. Cells were treated with various combinations of 2.85 μM R848, 82.5 μM DGP, and 10 μM MCC950 (final concentrations). Additionally, 50 ng/mL GM-CSF and 25 ng/mL IL-4 was added to the plates. Cell cultures were incubated in a total of 8 mL/plate in a 37° C. incubator on an orbital shaker set at 100 rpm overnight.
Cells were collected from plates and any remaining cells on plates were washed off the plates using PBS. After pelleting cells at 400×g for 5 min, cells were resuspended in R10++ and counted. Cell concentrations were adjusted to 5×10^5 cells/mL and plated in triplicate in the apical chambers of transwells at 1.5×10^5 cells/well. R10++ media containing 0; 20; or 200 ng/mL CCL19 were prepared and added to the basal chambers at 300 μL/well. For each cell treatment condition, control wells without transwell inserts were plated with an equivalent volume of cells and R10++ media. […]
To enumerate migrated DCs, an absolute count was obtained based on the total events acquired of counting beads and live, CD11c+CD209+ single cells. […] Finally, migration was calculated relative to cells treated with only R848 with no CCL19 added.

A further experiment concerns murine FLT3L-DCs. Briefly: Murine bone marrow-derived FLT3L-DCs hyperactivation. As to conditions: R848 alone vs R848 in combination with DGP; FIG. 4C. The format is cell-based, mice. The procedure:
Murine bone marrow-derived FLT3L-DCs generation. Leg femur and tibia were removed from mice, cut with scissors, and flushed into sterile tubes. Bone marrow suspension was treated with ACK for 1 minute, then passed through a 40 um cell strainer. Cells were counted and resuspended in media consisting of complete IMDM containing 10% FBS, penicillin and streptomycin, and supplements of L-glutamine and sodium pyruvate (I10). […] For each experiment, 5 mice are used to collect BM and to generate DCs.
Lipid preparation. […] Lipid stocks were then further diluted in PBS to treat cells.
Murine bone marrow-derived FLT3L-DCs hyperactivation. BMDCs were harvested on day 8 post differentiation, washed with PBS, and re-plated in FLT3L-containing I10 at a concentration of 1×10^5 cells/mL. Cells were primed with or without 1 μg/mL R848 (final) then treated with or without a hyperactivating lipid (or vehicle control). Forty-eight hours post stimulation, supernatants were collected for cytokine measurement. Viability was measured using the CellTiter-Glo assay (Promega) which measures ATP content from cells. Fifty microliters of CellTiter-Glo reagent were added to 50 μL of cells. Luminescence was quantified on a SpectraMax m5e plate reader using an integration time of 500 milliseconds. Viability data were set relative to control conditions where cells were treated with R848. IL-1β and TNFα cytokine were measured using sandwich ELISAs (Invitrogen).

Each structure is given as a SMILES string.

In the case of `CC(C)(O)c1coc(S(=O)(=O)NC(=O)Nc2c3c(cc4c2CCC4)CCC3)c1` [MCC950, reference compound], the “migration to the basal chamber” value in the experiment with human moDCs is “did not inhibit the hypermigration observed with R848+DGP”.
Regarding `CCCCCCCCCCCCCCCCCCCCCCOC[C@@H](O)COP(=O)(O)O` [Compound 2, 1-docosyl-sn-glycerol-3-phosphate], in the experiment on murine FLT3L-DCs, the TNFα secretion result is given as “comparable”.
